# Data published in US20200188471A1 (GUILIN EIGHT PLUS ONE PHARMACEUTICAL CO., LTD., priority 2017, published 2020).
# No end group written: not given here.
# Key:
# TNFR2 = target: T1, TNFR2 (Homo sapiens, UniProt P20333); assay: MST interaction with TNFR2; type: binding
# T1 sequence (P20333 23-461): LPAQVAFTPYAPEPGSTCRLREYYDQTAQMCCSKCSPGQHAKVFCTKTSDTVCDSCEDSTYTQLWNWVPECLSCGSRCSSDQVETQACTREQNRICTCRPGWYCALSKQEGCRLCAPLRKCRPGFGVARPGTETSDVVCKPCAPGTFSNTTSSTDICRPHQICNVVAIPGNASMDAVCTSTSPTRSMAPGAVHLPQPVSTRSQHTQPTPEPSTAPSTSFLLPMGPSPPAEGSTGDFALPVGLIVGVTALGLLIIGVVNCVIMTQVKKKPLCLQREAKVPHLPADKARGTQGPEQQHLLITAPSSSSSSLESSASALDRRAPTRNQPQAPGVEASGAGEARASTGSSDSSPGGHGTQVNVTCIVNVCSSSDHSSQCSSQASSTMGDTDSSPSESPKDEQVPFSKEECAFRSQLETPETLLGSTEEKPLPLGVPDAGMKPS
# TNF-α [1] = target: T2, TNF-α (Homo sapiens, UniProt P01375); assay: MST interaction with TNF-α; type: binding; settings: fluorescently labeled TNF-α
# CIA mice [2] = assay: Arthritis index in type II bovine collagen-induced arthritis (CIA) mice; type: in vivo, DBA/1 mice; settings: i.p. 1600 ug/kg once a day for 18 days, vs model group
# Procedure: (§1) After 3 days of adaptation, DBA/1 mice were weighed and began to model. Six were randomly selected as the normal group, and the rest were the experimental group.
# (§2) Day 0: Take bovine type IT collagen (4 mg/ml) and vortex and mix with an equal volume of CFA (4 mg/ml). It is better to not disperse on the water, and 100 ul/head is injected intradermally into the tail of the mouse.
# (§3) Day 21: Take bovine type II collagen (4 mg/ml) and vortex mixed with an equal volume of IFA (4 mg/ml) until the droplets are not dispersed on the water. The mice are injected intradermally with 100 ul/head. On the 30th day, the model was successfully established. […] The drug was administered by injection once a day for 18 days.
# (§4) One-Way ANOVA statistical analysis of the data using Graphpad Prism 5 was considered statistically significant at P<0.05. “*” indicates P<0.05, “**” indicates P<0.01, and “***” indicates P<0.001.
# CIA mice [3] = assay: Treg (Foxp3) and Th1, Th2, Th17 expression in T cells/splenocytes of CIA mice; type: in vivo, DBA/1 mice; settings: vs model group
# Procedure: as §1, §2, §3, §4
# Studies have shown that Th17 cells secrete high levels of IL-17, which stimulates the secretion of matrix metalloproteinase-1, IL-1β by FLS. TNF-α and other co-inducing NF-κB receptor activator ligands are involved in the bone destruction of RA and inflammatory damage in tissues. The effect was observed by measuring the expression of helper T cells in splenocytes.
# [4] = target: T3, interaction of TNFR1 with TNF-α (Homo sapiens, UniProt P19438); assay: BIAcore (SPR) competitive inhibition between TNF-α and TNFR1; type: binding
# T3 sequence (P19438 30-211 limits assumed): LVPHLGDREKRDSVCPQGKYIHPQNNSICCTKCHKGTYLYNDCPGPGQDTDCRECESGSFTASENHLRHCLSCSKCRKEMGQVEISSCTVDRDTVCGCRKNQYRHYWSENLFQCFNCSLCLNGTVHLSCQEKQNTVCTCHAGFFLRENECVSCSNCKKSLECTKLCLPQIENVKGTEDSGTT
# CIA mice [5] = assay: Micro-CT detection of bone destruction in CIA mice; type: in vivo, DBA/1 mice
# TNFR1 = target: T4, TNFR1 (Homo sapiens, UniProt P19438); settings: read-out: binding capacity with TNFR1 (KD); SPR; from Hailong Jiang 2015 master dissertation of the inventors' group; cited from earlier work
# T4 sequence (P19438 30-455): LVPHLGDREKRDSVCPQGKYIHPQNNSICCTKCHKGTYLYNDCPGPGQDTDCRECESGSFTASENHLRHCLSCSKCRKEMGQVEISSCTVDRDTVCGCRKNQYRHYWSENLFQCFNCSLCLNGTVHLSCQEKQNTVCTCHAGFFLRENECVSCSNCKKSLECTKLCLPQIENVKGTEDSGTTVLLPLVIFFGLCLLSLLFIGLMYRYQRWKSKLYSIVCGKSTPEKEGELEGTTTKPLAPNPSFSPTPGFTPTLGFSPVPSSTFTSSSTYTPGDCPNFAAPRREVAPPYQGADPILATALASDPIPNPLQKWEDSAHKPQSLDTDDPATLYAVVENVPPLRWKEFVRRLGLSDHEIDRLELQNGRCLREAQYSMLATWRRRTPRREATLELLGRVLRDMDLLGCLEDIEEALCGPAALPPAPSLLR
# TNF-α [6] = target: T2, TNF-α; assay: BIAcore (SPR) interaction with TNF-α; type: binding
# [7] = target: T5, interaction of TNFR1 and TNF-α (Homo sapiens, UniProt P19438); assay: MST competitive inhibition between TNF-α and TNFR1; type: binding
# T5 sequence (P19438 30-211 limits assumed): T3 sequence (P19438 30-211 limits assumed)
# Source text: Calculate the KD value by software. The changes of TNF-α saturation concentration, response amplitude and KD value before and after Hydrostatin-SN10 were compared.
# CIA mice [8] = assay: Joint histology of CIA mice (HE staining, TNF-α immunohistochemistry, TRAP staining); type: in vivo, DBA/1 mice
# CIA mice [9] = assay: Collagen-specific antibody and inflammatory factors in serum of CIA mice (ELISA, multi-factor kit); type: in vivo, DBA/1 mice; settings: 1600 ug/kg i.p., vs model group
# Procedure: as §1, §2, §3, §4
# The ELISA kit and multi-factor kit were used to determine the collagen-specific antibody Ig G and pro-inflammatory factors IL-17, TNF-α, IL-6, IFN-γ and anti-inflammatory factor IL-10 in the serum of each group of mice. Compared with the normal control group, the collagen-specific antibody Ig G and the pro-inflammatory factors IL-17, TNF-α, IL-6, IFN-γ in the serum of the model group mice.
# [10] = trabecular bone, Micro-CT, vs model group
substance,measurement,setting,value
H-DEQHLETELH [Hydrostatin-SN10],binding to TNFR2,TNFR2; fluorescently labeled TNFR2,not binding
same,binding to TNFR2,"TNFR2; fluorescently labeled TNFR2, listed as SN10",no binding
same,binding to TNF-α,TNF-α [1],not binding
same,binding to TNF-α,TNF-α [1]; listed as SN10,no binding
same,arthritis index,CIA mice [2],reduced
same,expression level of Foxp3 in Treg cells,CIA mice [3]; CIA mice,significantly increased
same,expression level of IFN-γ (Th1),CIA mice [3]; splenocytes of CIA mice,significantly down-regulated
same,expression level of IL-17 (Th17),CIA mice [3]; splenocytes of CIA mice,significantly down-regulated
same,expression of IL-4 (Th2),CIA mice [3]; splenocytes of CIA mice,up-regulated
same,competitive inhibition of the interaction of TNFR1 with TNF-α,[4],competitively inhibits
same,trabecular bone damage,"CIA mice [5]; Micro-CT of trabecular bone, CIA mice, vs model group",significantly reduced bone damage
same,"degree of bone destruction, hind limbs","CIA mice [5]; Micro-CT, CIA mice, peptides 1600 ug/kg, infliximab 4 mg/kg i.p.",significantly reduced the degree of bone destruction
same,bone area/tissue volume (BS/TV),CIA mice [5]; [10],significantly up-regulated
same,bone mineral density (BMD),CIA mice [5]; [10],significantly up-regulated
same,bone surface area/bone volume (BS/BV),CIA mice [5]; [10],significant down
same,bone volume/tissue volume (BV/TV),CIA mice [5]; [10],significantly up-regulated
same,number of trabeculae (Th.N),CIA mice [5]; [10],significantly up-regulated
same,trabecular model factor (Tb.pf),CIA mice [5]; [10],significant down
same,trabecular separation (Tb.sp),CIA mice [5]; [10],significant down
same,trabecular thickness (Tb.Th),CIA mice [5]; [10],significantly up-regulated
same,Kd,TNFR1,~2.8 µM
same,binding to TNF-α,TNF-α [6],does not bind
same,binding to TNF-α,TNF-α [6]; listed as SN10,no binding
same,competitive inhibition of the interaction of TNFR1 and TNF-α,[7],competitively inhibit
same,inflammatory cell infiltration,CIA mice [8]; HE staining of joint,more severe inflammatory cell infiltration
same,joint structure,CIA mice [8]; HE staining of joint,intact joint structure
same,synovial hyperplasia,CIA mice [8]; HE staining of joint,severe synovial hyperplasia
same,osteoclasts in joints,"CIA mice [8]; TRAP staining, vs model group",reduced osteoclasts
same,tartrate-resistant phosphatase (TRAP) in joints,"CIA mice [8]; TRAP staining, vs model group",reduced
same,amount of expression of TNF-α in the joints,"CIA mice [8]; immunohistochemistry, vs model group",reduced
same,content of IFN-γ in serum,CIA mice [9],significantly reduced
same,content of IL-6 in serum,CIA mice [9],significantly reduced
same,content of IL-17 in serum,CIA mice [9],significantly reduced
same,content of TNF-α in serum,CIA mice [9],significantly reduced
same,content of anti-inflammatory factor IL10 in serum,CIA mice [9],Significantly increased
same,content of collagen-specific antibody Ig G in serum,CIA mice [9],significantly reduced
